Test results published in patent publication US20240172756A1, “ORGANOANTIMONY(V) C[…] AND METHODS OF PRODUCTION AND USE THEREOF” (priority 2021, published 2024).

How the values were obtained:
Type in all cases: cell-based
[1] = tested on: Candida albicans; test: Antifungal disk diffusion assay, C. albicans; details: solid compound on paper disk
Description: (§1) To determine the antifungal properties of the two groups of Sb(V) cyanoximaes, Cryptococcus neoformans and Candida albicans, both of which are deadly human pathogens, were tested.
(§2) First, solid state powder compounds were deposited on paper disks and tested against two fungi: Cryptococcus neoformans and Candia albicans. Each experiment was conducted in triplicate with each compound at each concentration of deposited solid compound. The control was a blank paper (100% cotton disk).
(§3) Disk diffusion assays: No inhibition of Cryptococcus neoformans or Candida albicans for the following organoantimony(V) cyanoximate compounds at any concentration (S, ×2, ×4): H(ACO), H(ECO), H(MCO).

[2] = tested on: bacterial and fungal pathogens; test: Antimicrobial activity overall (disk diffusion and MIC tests, strain not specified); details: for antimicrobial effect in MIC assays: organism not given
Description: (§4) To determine the antimicrobial potential of the two generations (G1—based on SbPh4-core, and G2—based on SbMe3-core) of newly synthesized Sb(V) cyanoximates, several representative compounds were first selected and their antimicrobial properties tested by using disk diffusion assays, The minimal inhibitory concentrations (MIC) of selected compounds were also determined in liquid cultures. Three bacterial and two fungal pathogens were used as target microorganisms. Bacterial pathogens included Gram-negative Pseudomonas aeruginosa and Gram-positive Staphylococcus aureus, representing the ESKAPE group of human pathogens known for their high virulence and antibiotic resistance.
(§5) Two different types of antimicrobial studies were performed: 1) paper disk studies during growth on solid media; and 2) MIC determination during growth in liquid media. […] Antifungal disk assays concluded that Sb(Ph)4 (ECO) was effective against Cryptococcus neoformans and Candida albicans. […] For MIC assays, Sb(Ph)4 (MCO), the Sb(V) cyanoximate, was tested, along with the free cyanoximes H(MCO), H(ECO), and Na[H(ACO)2].

[3] = tested on: Cryptococcus neoformans; test: Antifungal disk diffusion assay, C. neoformans; details: solid compound on paper disk
Description: as §1, §2, §3

[4] = tested on: Escherichia coli; test: MIC in liquid culture, E. coli; details: for MIC, E. coli: Table 1; for antimicrobial effect: strain S17, paper disk and MIC studies
Description: as §4
(§6) MIC of the 3rd generation compounds, as well as complete MIC measurements for the 2nd generation Sb(V) compounds, are determined. A dilution assay in a 96-well-plate format, the gold standard for measuring MICS recommended by the Clinical Laboratory Standards Institute (CLSI), is utilized. Prior to plate inoculation, bacterial cultures of P. aeruginosa PAO1, S. aureus NRS70, E. foecium CC17, and E. coli S17 are grown in Mueller Hinton Broth (MHB) to middle log phase as determined by the individual growth curves and diluted to obtain absorbance at 600 nm of 0.1. These normalized cultures are diluted 1:100 using MHB and inoculated into the fresh medium with serially diluted Sb(V) compounds in 96-well plates. The plates are incubated for 24 h at 37° C. For fungal pathogens, cultures of Cryptococcus neoformans strain H99 and Candida albicans strain SC5314 are grown to stationary phase in YPD medium for 18 h at 30° C. Following incubation, fungal cells are centrifuged, washed three times with PBS, and then counted with trypan blue exclusion. Each compound is screened using a microdilution assay with 0.5×10^3 fungal cells in RPMI-MOPS medium at 35° C. for 48 h. Following incubations for bacterial or fungal pathogens, the OD600 is measured using a Biotek Synergy HT microtiter plate reader ([…].). The MIC is defined as the lowest concentration that inhibits growth. An aliquot from the clear wells from the MIC assay is plated on agar to determine minimum bactericidal concentration (MBC) or minimum fungicidal concentration (MFC). Each experiment is based on at least three biological replicates and repeated for consistency. The MIC and MBC for each compound is compared to those obtained for clinically applied antibiotics/antifungals. For bacterial pathogens, the corresponding antibiotics, such as tobramycin (P. aeruginosa), trimethoprim (S. aureus), gentamicin (E. coli) and ampicillin (E. foecium), are used. For fungal pathogens, the data is compared to the antifungal drugs Amphotericin B and Caspofungin for C. neoformans and C. albicans, respectively, by using the CLSI method.
as §5
(§7) MIC assays: The MIC assay protocol utilized for determination of the effects of various organoantimony(V) cyanoximate compounds in various bacteria is shown in FIG. 16. Each solubilized in DMSO at 5 mg/ml, starting concentration is 100 μg/ml. Error bars represent standard error of the mean (if none, the values were identical in each experiment). Untested compounds have no bar. Bars reaching 100 μg/ml were not considered to have antifungal activity.

[5] = tested on: Pseudomonas aeruginosa; test: MIC in liquid culture, P. aeruginosa; details: for MIC, P. aeruginosa: Table 1; for antimicrobial effect: strain PAO1, paper disk and MIC studies
Description: as §4, §6, §5, §7

[6] = tested on: Cryptococcus neoformans; test: MIC assay, C. neoformans; details: for MIC, C. neoformans: Table 1
Description: as §1, §6
(§8) Second, the compounds were dissolved in DMSO to […], and their minimal inhibitory concentration (MIC) was determined against C. neoformans and C. albicans. Starting concentration used was 100 μg/ml, and then diluted 1:2.
as §7

[7] = tested on: Candida albicans; test: MIC assay, C. albicans; details: for MIC, C. albicans: Table 1
Description: as §1, §6, §8, §7

[8] = tested on: Staphylococcus aureus; test: MIC in liquid culture, S. aureus; details: for MIC, S. aureus: Table 1; for antimicrobial effect: Methicillin-resistant strain NRS70, paper disk and MIC studies
Description: as §4, §6, §5, §7

[9] = tested on: Staphylococcus aureus MRSA; test: Broth dilution assay, S. aureus MRSA; details: multi-drug resistant strain, FIG. 20
Text: As shown in FIGS. 20-21, compounds containing Sb display higher bactericidal activity against Gram positive Staphylococcus aureus (FIG. 20) than Gram negative E. coli (FIG. 21). […] In addition, 25-40% reduction of growth was also observed for Sb(Ph4)Br, Sb(Ph4)ECO, Sb(Ph4)ACO, and Sb(Ph4)TCO against Gram negative E. coli (FIG. 21).

[10] = in DMSO, starting concentration 100 μg/ml, active if MIC below 100 μg/ml

Structure (SMILES)	antifungal activity / zone of inhibition in disk assay [1]	antifungal activity / zone of inhibition in disk assay [3]	MIC, E. coli [4] [µg/mL]	MIC, P. aeruginosa [5] [µg/mL]	MIC, C. neoformans [6] [µg/mL]	MIC, C. albicans [7] [µg/mL]	MIC, S. aureus [8] [µg/mL]	further results
N#C/C(=N\O)C(N)=O [H(ACO), reference compound]	No inhibition	No inhibition						antimicrobial activity [2]: most antimicrobially active
CCOC(=O)/C(C#N)=N/O [H(ECO), reference compound]	No inhibition	No inhibition						antimicrobial effect in MIC assays [2]: no antimicrobial effect
N#CC(=NO)C(=O)N1CCOCC1 [H(MCO), reference compound]	No inhibition	No inhibition						antimicrobial activity [2]: most antimicrobially active; antimicrobial effect in MIC assays [2]: no antimicrobial effect
N#CC(=NO)C(N)=O.N#CC(=N[O-])C(N)=O.[Na+] [Na[H(ACO)2]]								antimicrobial effect in MIC assays [2]: no antimicrobial effect
[CH3][Sb]([CH3])([CH3])([O]N=C(C#N)c1ccc(Cl)cc1Cl)[O]N=C(C#N)c1ccc(Cl)cc1Cl [SbMe3(2,4-ClPhCO)2]			>200	>200	>100	>100		
[CH3][Sb]([CH3])([CH3])([O]N=C(C#N)c1c(Cl)cccc1Cl)[O]N=C(C#N)c1c(Cl)cccc1Cl [SbMe3(2,6-ClPhCO)2]			50	>200	>100	>100		antimicrobial activity [2]: pronounced antimicrobial activity
[CH3][Sb]([CH3])([CH3])([O]N=C(C#N)c1ccccc1Cl)[O]N=C(C#N)c1ccccc1Cl [SbMe3(2-ClPhCO)2]			>200	>200	>100	>100	>200	
CCOC(=O)C(C#N)=N[O][Sb]([CH3])([CH3])([CH3])[O]N=C(C#N)C(=O)OCC [SbMe3(ECO)2]			>200	>200			>200	
[CH3][Sb]([CH3])([CH3])([O]N=C(C#N)C(=O)N1CCOCC1)[O]N=C(C#N)C(=O)N1CCOCC1 [SbMe3(MCO)2]			>200	50			>200	antimicrobial activity [2]: pronounced antimicrobial activity
[CH3][Sb]([CH3])([CH3])([O]N=C(C#N)C(N)=S)[O]N=C(C#N)C(N)=S [SbMe3(TCO)2]			>200	>200				
CN(C)C(=S)C(C#N)=N[O][Sb]([CH3])([CH3])([CH3])[O]N=C(C#N)C(=S)N(C)C [SbMe3(TDCO)2]			>200	>200				
[CH3][Sb]([CH3])([CH3])([Br])[Br] [SbMe3Br2, triemethylantimony(V) dibromide, reference compound]			150	50	>100	>100	100	
N#CC(=N[O][Sb]([c]1ccccc1)([c]1ccccc1)([c]1ccccc1)[c]1ccccc1)C(N)=O [SbPh4ACO]	only effective at inhibition of Cryptococcus neoformans	effective	100	100	18.8	15.6	100	antimicrobial effect [4]: significant antimicrobial effect; antimicrobial effect [5]: significant antimicrobial effect; MIC (minimum inhibitory concentrations) [9]: 100 µg/mL; bactericidal activity [9]: significant bactericidal activity; antimicrobial effect [8]: significant antimicrobial effect
[Br][Sb]([c]1ccccc1)([c]1ccccc1)([c]1ccccc1)[c]1ccccc1 [SbPh4Br, tetraphenylantimony(V) bromide, reference compound]								bactericidal activity [9]: significant bactericidal activity
CCOC(=O)C(C#N)=N[O][Sb]([c]1ccccc1)([c]1ccccc1)([c]1ccccc1)[c]1ccccc1 [SbPh4ECO]	effective	effective	>200	150	10.9	31.2	150	antimicrobial effect [4]: significant antimicrobial effect; antimicrobial effect [5]: significant antimicrobial effect; bactericidal activity [9]: significant bactericidal activity; antimicrobial effect [8]: significant antimicrobial effect
N#CC(=N[O][Sb]([c]1ccccc1)([c]1ccccc1)([c]1ccccc1)[c]1ccccc1)C(=O)N1CCOCC1 [SbPh4MCO]			>200	200	19.8	32.1	100	concentration with fungicidal activity (killed C. neoformans) ([6]; Example 6): 100 µg/mL; MIC with C. neoformans ([6]; Example 6, three independent experiments): 22.5 µg/mL; antifungal activity in MIC assay [6, 10]: exhibited antifungal activity; antifungal activity in MIC assay [7, 10]: exhibited antifungal activity
CN(C)C(=S)C(C#N)=N[O][Sb]([c]1ccccc1)([c]1ccccc1)([c]1ccccc1)[c]1ccccc1 [SbPh4TDCO]	only effective at inhibition of Cryptococcus neoformans	effective	>200	>200	33.3	100	100	antimicrobial effect [4]: essentially no antimicrobial activity; antimicrobial effect [5]: essentially no antimicrobial activity; antimicrobial effect [8]: significant effects
